The record followed here is patent US20240270762A1, “PENICILLIN-BINDING PROTEIN INHIBITORS” (priority 2021, published 2024).

Molecules are shown by their SMILES. Values after ≈ are worked out from the molar mass of the structure shown. Read-outs that look alike come from different tables or passages of the source.

Experiment [1] relates to P. aeruginosa (ΔmexAB-oprM). As to the kind of experiment: Broth microdilution MIC in iron-depleted CAMHB (IDM). The format is cell-based. The note with it: Pseudomonas aeruginosa, read-out: Minimum inhibitory concentration, P. aeruginosa ΔmexAB-oprM. For orientation: Dilution methods test growth across graded concentrations, often in twofold steps.
The subject of experiment [2] is B. thailandensis ATCC 700388. As to the kind of experiment: microbe, parasite or virus in culture. The conditions noted are these: Burkholderia thailandensis, ATCC700388, read-out: Minimum inhibitory concentration (MIC), B. thailandensis ATCC 700388. In kind it is cell-based.
For the next experiment, the system named is P. aeruginosa CDC-0054. Put plainly: microbe, parasite or virus in culture. The format is cell-based. The conditions noted are these: Pseudomonas aeruginosa, CDC0054, read-out: Minimum inhibitory concentration, P. aeruginosa CDC-0054.
The subject of another experiment is A. baumannii 1258916. Put plainly: microbe, parasite or virus in culture. In kind it is cell-based, Acinetobacter baumannii. The conditions noted are these: Acinetobacter baumannii, 1258916, read-out: Minimum inhibitory concentration (MIC), A. baumannii 1258916.
A further experiment has as its system P. aeruginosa CDC-0095. Put plainly: microbe, parasite or virus in culture. The format is cell-based. The note with it: Pseudomonas aeruginosa, CDC0095, read-out: Minimum inhibitory concentration, P. aeruginosa CDC-0095.
In the next experiment the test system is A. baumannii ATCC 17978. Put plainly: microbe, parasite or virus in culture. The format is cell-based. The conditions noted are these: Acinetobacter baumannii, ATCC17978, read-out: Minimum inhibitory concentration (MIC), A. baumannii ATCC 17978.
The target in experiment [3] is T1, PBP3 from Pseudomonas aeruginosa (PAO1) (Pseudomonas aeruginosa, UniProt G3XD46).
T1 construct: made in house
Put plainly: Bocillin-FL fluorescence polarization competition binding, P. aeruginosa PBP3. The note with it: Binding affinity to P. aeruginosa PBP3; fluorescence polarization competition binding assay using Bocillin-FL; read-out: P. aeruginosa PBP3 Potency. In short, it runs like this: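 Purified PBP was preincubated with inhibitor (E. coli PBP3 1.5 μM, 30 min; P. aeruginosa PBP3 0.75 μM, A. baumannii PBP3 0.2 μM and PBP1a 1 μM, 15 min), then Bocillin-FL (0.1 μM; 0.05 μM for PBP1a) added and FP read up to 60 min. EC50 = 50% loss of bound probe.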
Background: Polarisation of emitted light reports the rotation of a fluorescent probe.

The next experiment concerns P. aeruginosa CDC-0090. Put plainly: microbe, parasite or virus in culture. In kind it is cell-based. The note with it: Pseudomonas aeruginosa, CDC0090, read-out: Minimum inhibitory concentration, P. aeruginosa CDC-0090.

T1 sequence (G3XD46 whole entry): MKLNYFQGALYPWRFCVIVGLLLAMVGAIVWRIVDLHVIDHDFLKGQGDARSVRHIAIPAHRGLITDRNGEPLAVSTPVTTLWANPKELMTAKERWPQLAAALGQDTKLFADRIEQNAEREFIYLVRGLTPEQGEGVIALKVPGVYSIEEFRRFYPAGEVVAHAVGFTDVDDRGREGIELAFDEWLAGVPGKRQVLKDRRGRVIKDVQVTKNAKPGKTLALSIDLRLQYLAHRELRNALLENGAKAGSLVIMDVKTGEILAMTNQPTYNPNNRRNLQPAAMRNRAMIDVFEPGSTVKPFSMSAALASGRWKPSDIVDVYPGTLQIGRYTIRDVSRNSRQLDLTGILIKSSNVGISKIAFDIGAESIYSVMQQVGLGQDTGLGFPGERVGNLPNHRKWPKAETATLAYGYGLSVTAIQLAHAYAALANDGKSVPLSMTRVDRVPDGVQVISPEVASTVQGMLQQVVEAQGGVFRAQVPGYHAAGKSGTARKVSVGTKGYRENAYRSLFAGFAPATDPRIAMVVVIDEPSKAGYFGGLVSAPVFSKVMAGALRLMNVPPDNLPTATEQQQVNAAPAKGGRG

As to `O=C(O)c1c(F)ccc2c1OB(O)[C@@H](NC(=O)[C@H](NC(=O)N1CCN(C3CCN(C(=O)c4cc(F)c(O)c(O)c4Cl)CC3)C1=O)c1ccc(P(=O)(O)O)cc1)C2` (single isomer, unassigned) [Example 495], the MIC is less than 1 µg/mL in experiment [1] (iron-depleted CAMHB (IDM), […]); less than 1 µg/mL in experiment [2]; less than 1 µg/mL in the experiment with P. aeruginosa CDC-0054; less than 1 µg/mL with A. baumannii 1258916; 32 to 64 µg/mL (≈ 38.9 to 77.9 µM) in the experiment with P. aeruginosa CDC-0095; less than 1 µg/mL in the experiment on A. baumannii ATCC 17978. The MIC in the experiment on P. aeruginosa CDC-0090 was less than 1 µg/mL. Further, the IC50 in experiment [3] was less than 10 µM.

On to `O=C(O)c1c(F)ccc2c1OB(O)[C@@H](NC(=O)[C@H](NC(=O)N1CCN(C3CCN(C(=O)Nc4ccc(O)c(O)c4Cl)CC3)C1=O)c1ccc(P(=O)(O)O)cc1)C2` (single isomer, unassigned) [Example 497], for which the MIC is less than 1 µg/mL in experiment [1] (iron-depleted CAMHB (IDM), […]); less than 1 µg/mL in experiment [2]; less than 1 µg/mL with P. aeruginosa CDC-0054; less than 1 µg/mL in the experiment with A. baumannii 1258916; 32 to 64 µg/mL (≈ 39.1 to 78.2 µM) in the experiment with P. aeruginosa CDC-0095; less than 1 µg/mL in the experiment with A. baumannii ATCC 17978. The MIC in the experiment with P. aeruginosa CDC-0090 lay within 8 to 16 µg/mL (≈ 9.77 to 19.5 µM). For the same compound, the IC50 in experiment [3] is less than 10 µM.

`O=C(O)c1c(F)ccc2c1OB(O)[C@@H](NC(=O)[C@H](NC(=O)N1CCN(C3CCN(C(=O)Nc4cc(F)c(O)c(O)c4Cl)CC3)C1=O)c1ccc(P(=O)(O)O)cc1)C2` (single isomer, unassigned) [Example 500]: the MIC was less than 1 µg/mL in experiment [1] (iron-depleted CAMHB (IDM), […]); less than 1 µg/mL in experiment [2]; less than 1 µg/mL with P. aeruginosa CDC-0054; less than 1 µg/mL with A. baumannii 1258916; less than 1 µg/mL with P. aeruginosa CDC-0095; less than 1 µg/mL with A. baumannii ATCC 17978. The MIC in the experiment with P. aeruginosa CDC-0090 was 2 to 4 µg/mL (≈ 2.39 to 4.78 µM). In addition, the IC50 in experiment [3] is less than 10 µM.

`O=C(O)c1c(F)ccc2c1OB(O)[C@@H](NC(=O)[C@H](NC(=O)N1CCN(C3CCN(C(=O)c4ccc(O)c(O)c4Cl)CC3)C1=O)c1ccc(P(=O)(O)O)cc1)C2` [Example 494, (R)-3-((R)-2-(3-(1-(2-chloro-3,4-dihydroxybenzoyl)piperidin-4-yl)-2-oxoimidazolidine-1-carboxamido)-2-(4-phosphonophenyl)acetamido)-7-fluoro-2-hydroxy-3,4-dihydro-2H-benzo[e][1,2]oxaborinine-8-carboxylic acid]: the MIC in experiment [1] (iron-depleted CAMHB (IDM), […]) was less than 1 µg/mL; in experiment [2] it was less than 1 µg/mL; with P. aeruginosa CDC-0054, less than 1 µg/mL; with A. baumannii 1258916, less than 1 µg/mL; in the experiment on P. aeruginosa CDC-0095, 8 to 16 µg/mL (≈ 9.95 to 19.9 µM); with A. baumannii ATCC 17978, less than 1 µg/mL. In addition, in the experiment with P. aeruginosa CDC-0090, the MIC was less than 1 µg/mL. In addition, the IC50 in experiment [3] was less than 10 µM.

Turning to `O=C(O)c1c(F)ccc2c1OB(O)[C@@H](NC(=O)[C@H](NC(=O)N1CCN(C3CCN(C(=O)c4cc(O)c(O)c(Cl)c4)CC3)C1=O)c1ccc(P(=O)(O)O)cc1)C2` [Example 496, (R)-3-((R)-2-(3-(1-(3-chloro-4,5-dihydroxybenzoyl)piperidin-4-yl)-2-oxoimidazolidine-1-carboxamido)-2-(4-phosphonophenyl)acetamido)-7-fluoro-2-hydroxy-3,4-dihydro-2H-benzo[e][1,2]oxaborinine-8-carboxylic acid], the MIC was less than 1 µg/mL in experiment [1] (iron-depleted CAMHB (IDM), […]); less than 1 µg/mL in experiment [2]; less than 1 µg/mL in the experiment with P. aeruginosa CDC-0054; less than 1 µg/mL in the experiment with A. baumannii 1258916; 8 to 16 µg/mL (≈ 9.95 to 19.9 µM) with P. aeruginosa CDC-0095; less than 1 µg/mL in the experiment with A. baumannii ATCC 17978. For the same compound, the MIC in the experiment on P. aeruginosa CDC-0090 was less than 1 µg/mL. In addition, in experiment [3], the IC50 is less than 10 µM.

Consider `O=C(O)c1c(F)ccc2c1OB(O)[C@@H](NC(=O)[C@H](NC(=O)N1CCN(Cc3ccc(O)c(O)c3Cl)C(=O)C1=O)c1cc(F)c(P(=O)(O)O)c(F)c1)C2` [Example 502, (R)-3-((R)-2-(4-(2-chloro-3,4-dihydroxybenzyl)-2,3-dioxopiperazine-1-carboxamido)-2-(3,5-difluoro-4-phosphonophenyl)acetamido)-7-fluoro-2-hydroxy-3,4-dihydro-2H-benzo[e][1,2]oxaborinine-8-carboxylic acid], for which the MIC in experiment [1] (iron-depleted CAMHB (IDM), […]) was less than 1 µg/mL; in experiment [2] it was less than 1 µg/mL; in the experiment on P. aeruginosa CDC-0054, less than 1 µg/mL; in the experiment with A. baumannii 1258916, less than 1 µg/mL; with P. aeruginosa CDC-0095, 2 to 4 µg/mL (≈ 2.59 to 5.19 µM); with A. baumannii ATCC 17978, less than 1 µg/mL. For the same compound, the MIC in the experiment with P. aeruginosa CDC-0090 was less than 1 µg/mL. Further, the IC50 in experiment [3] is less than 10 µM.

As to `O=C(NCCN1CCN(C(=O)N[C@@H](C(=O)N[C@H]2Cc3ccc(F)c(C(=O)O)c3OB2O)c2ccc(P(=O)(O)O)cc2)C(=O)C1=O)c1ccc(O)c(O)c1Cl` [Example 503, (R)-3-((R)-2-(4-(2-(2-chloro-3,4-dihydroxybenzamido)ethyl)-2,3-dioxopiperazine-1-carboxamido)-2-(4-phosphonophenyl)acetamido)-7-fluoro-2-hydroxy-3,4-dihydro-2H-benzo[e][1,2]oxaborinine-8-carboxylic acid], the MIC is less than 1 µg/mL in experiment [1] (iron-depleted CAMHB (IDM), […]); less than 1 µg/mL in experiment [2]; less than 1 µg/mL with P. aeruginosa CDC-0054; less than 1 µg/mL with A. baumannii 1258916; less than 1 µg/mL in the experiment on P. aeruginosa CDC-0095; less than 1 µg/mL with A. baumannii ATCC 17978. Also, the MIC with P. aeruginosa CDC-0090 is less than 1 µg/mL. The IC50 in experiment [3] was less than 10 µM.

Take `O=C(O)c1cccc2c1OB(O)[C@@H](NC(=O)[C@H](NC(=O)N1CCN(Cc3cc(F)c(O)c(O)c3Cl)C(=O)C1=O)c1ccc(P(=O)(O)O)cc1)C2` [Example 504, (R)-3-((R)-2-(4-(2-chloro-5-fluoro-3,4-dihydroxybenzyl)-2,3-dioxopiperazine-1-carboxamido)-2-(4-phosphonophenyl)acetamido)-2-hydroxy-3,4-dihydro-2H-benzo[e][1,2]oxaborinine-8-carboxylic acid]: the MIC (in experiment [1]; in experiment [2]; in the experiment on P. aeruginosa CDC-0054; with A. baumannii 1258916; in the experiment on P. aeruginosa CDC-0095; in the experiment on A. baumannii ATCC 17978) was less than 1 µg/mL each time. In addition, the MIC in the experiment on P. aeruginosa CDC-0090 was less than 1 µg/mL.

Consider `O=C(O)c1c(F)ccc2c1OB(O)[C@@H](NC(=O)C(NC(=O)N1CCN(S(=O)(=O)c3ccc(O)c(O)c3Cl)C1=O)c1ccc(P(=O)(O)O)cc1)C2` (stereo partly drawn) [Example 505, (3R)-3-(2-(3-((2-chloro-3,4-dihydroxyphenyl)sulfonyl)-2-oxoimidazolidine-1-carboxamido)-2-(4-phosphonophenyl)acetamido)-7-fluoro-2-hydroxy-3,4-dihydro-2H-benzo[e][1,2]oxaborinine-8-carboxylic acid], for which the MIC in experiment [1] (iron-depleted CAMHB (IDM), […]) was less than 1 µg/mL; in experiment [2], less than 1 µg/mL; with P. aeruginosa CDC-0054, less than 1 µg/mL; in the experiment with A. baumannii 1258916, less than 1 µg/mL; in the experiment on P. aeruginosa CDC-0095, less than 1 µg/mL; in the experiment with A. baumannii ATCC 17978 it was less than 1 µg/mL. Moreover, in the experiment with P. aeruginosa CDC-0090, the MIC is less than 1 µg/mL. In addition, the IC50 in experiment [3] is less than 10 µM.

Consider `O=C(O)c1c(F)ccc2c1OB(O)[C@@H](NC(=O)[C@H](NC(=O)N1CCN(S(=O)(=O)c3ccc(O)c(O)c3Cl)C1=O)c1ccc(P(=O)(O)O)cc1)C2` [Example 506, (R)-3-((R)-2-(3-((2-chloro-3,4-dihydroxyphenyl)sulfonyl)-2-oxoimidazolidine-1-carboxamido)-2-(4-phosphonophenyl)acetamido)-7-fluoro-2-hydroxy-3,4-dihydro-2H-benzo[e][1,2]oxaborinine-8-carboxylic acid], for which the MIC in experiment [1] (iron-depleted CAMHB (IDM), […]) is less than 1 µg/mL; in experiment [2] it was less than 1 µg/mL; with P. aeruginosa CDC-0054 it was less than 1 µg/mL; with A. baumannii 1258916 it was less than 1 µg/mL; in the experiment on P. aeruginosa CDC-0095 it was less than 1 µg/mL; in the experiment on A. baumannii ATCC 17978 it was less than 1 µg/mL. Besides, in the experiment with P. aeruginosa CDC-0090, the MIC was less than 1 µg/mL. The IC50 in experiment [3] is less than 10 µM.

Turning to `O=C(O)c1cccc2c1OB(O)[C@@H](NC(=O)[C@H](NC(=O)N1CCN(S(=O)(=O)c3ccc(O)c(O)c3Cl)C1=O)c1ccc(P(=O)(O)O)cc1)C2` [Example 509, (R)-3-((R)-2-(3-((2-chloro-3,4-dihydroxyphenyl)sulfonyl)-2-oxoimidazolidine-1-carboxamido)-2-(4-phosphonophenyl)acetamido)-2-hydroxy-3,4-dihydro-2H-benzo[e][1,2]oxaborinine-8-carboxylic acid], the MIC in experiment [1] (iron-depleted CAMHB (IDM), […]) was less than 1 µg/mL; in experiment [2], less than 1 µg/mL; with P. aeruginosa CDC-0054, less than 1 µg/mL; in the experiment with A. baumannii 1258916 it was less than 1 µg/mL; in the experiment with P. aeruginosa CDC-0095, less than 1 µg/mL; with A. baumannii ATCC 17978, less than 1 µg/mL. In addition, the MIC with P. aeruginosa CDC-0090 is less than 1 µg/mL. For the same compound, the IC50 in experiment [3] is less than 10 µM.
